Results: patent publication US10183155B2, “Implantable devices and methods for evaluation of active agents” (Kibur Medical, Inc., priority 2011, dated 2019)
Where “and” joins values, the source holds several entries; their conditions need not be identical. Equal values may be shown once. Blank lines part the entries; values can stand above or below the molecule they belong to.

What was measured:
A375 tumors [1] = test: Local tumor apoptosis (cleaved caspase 3) after systemic dosing in A375 tumors; type: in vivo, mice; conditions: systemic dosing 8 mg/kg, 24 hours
Experimental: (§1) To compare the efficacy of device delivered doxorubicin to efficacy achieved with systemic delivery, mice bearing A375 or PC3 tumors were systemically administered an 8 mg/kg dose of doxorubicin. Apoptosis, as measured by cleaved caspase 3 expression, was used to evaluate drug efficacy at 24 hours post implantation or systemic dosing.

[2] = Intratumor concentration of doxorubicin after systemic administration; type: in vivo; conditions: systemic 8 mg/kg, BT474 bearing mice
Experimental: (§2) Doxorubicin was administered systemically at 8 mg/kg to BT474 bearing mice. Intratumor concentration of doxorubicin was analyzed by standard immunohistochemical and fluorescence techniques previously described and standard in the art. Doxorubicin was loaded into microwells in the device. The device was implanted in a BT474 tumor as in Example 7. After 20 hours, the device and surrounding tissue was excised and doxorubicin concentration in the surrounding tumor tissue was analyzed.

Ki67 = Ki67 protein expression by immunohistochemistry around device in BT474 tumor; type: in vivo; conditions: 20 hour exposure, region closest to the microwell
Experimental: (§3) Doxorubicin was loaded into microwells in the device and implanted within a BT474 tumor. After 20 hours, the device and surrounding tissue was removed. Protein expression of cleaved caspase 3 and Poly(ADP-ribose) polymerase (PARP) was evaluated by immunohistochemical analysis. These biomarkers are indicators of apoptosis. Protein expression of Ki67 and survivin was evaluated by immunohistochemical analysis. Ki67 is a biomarker for monitoring reduced cell proliferation rates. Survivin is a biomarker for monitoring reduced inhibition of apoptosis.
(§4) Effect of 20 hour doxorubicin exposure on the expression of the biomarkers was determined as described in Example 4. However, here four concentration gradient regions of approximately 100 μm were determined and evaluated.

MDA-MB231 tumors = test: Implantable device assay: apoptosis (cleaved caspase 3) after device delivery in MDA-MB231 tumors; type: in vivo, mice
Experimental: (§5) Lapatinib was loaded into microwells in the implantable device that were preloaded with doxorubicin. The device was then implanted into MDA-MB231 tumors. The device and surrounding tissue was removed 24 hours later and apoptosis was evaluated by cleaved caspase 3 expression using standard immunohistochemical assays.

A375 tumors [3] = test: Implantable device assay: apoptosis (cleaved caspase 3) after device delivery in A375 tumors; type: in vivo, mice
Experimental: (§6) Doxorubicin was loaded into a microwell in the implantable device. The device was implanted into tumor tissue. This was repeated for three different murine human cell tumor models (BT474, PC3, A375). After implantation for 20 hours, the device and surrounding tissue was removed, and embedded in acrylic for cross-sectioning and histopathological analysis.
(§7) Fluorescent imaging techniques were used on sample cross-sections to determine the doxorubicin concentration and diffusion profile within the tissue surrounding the device. Standard histopathological techniques, such as but not limited to, immunochemical techniques, can be used to measure a desired characteristic within the surrounding tissue to determine effectiveness of a compound. In this instance, cleaved caspase 3 antibodies were used to detect cells undergoing apoptosis.
Efficacy of doxorubicin at different concentration gradients within the tissue was quantified using a two-step analysis. […]
Second, the effect of the drug on a measurable characteristic in each concentration region is determined. In this example, the amount of cells undergoing apoptosis, as determined by cleaved caspase 3 antibody binding, was evaluated in each doxorubicin concentration region. Efficacy of the doxorubicin released from the microwell is determined by antibody staining of tissue sections divided into regions corresponding to local compound exposure.
Varying percentages (1% and 5% by weight) of doxorubicin was dissolved in PEG having a molecular weight of 1000 or 1450. […] After 20 hours, the device and surrounding tissue was removed and analyzed for doxorubicin concentration and cleaved caspase 3 expression, as previously described.
Murine A375, BT474, or PC3 tumor models were used to determine whether the device measurement of local microdose response is a satisfactory predictor of a systemic response in different tumor models. […] Apoptosis, as measured by cleaved caspase 3 expression, was used to evaluate drug efficacy at 24 hours post implantation or systemic dosing. […]

BT474 tumors = test: Implantable device assay: apoptosis (cleaved caspase 3) after device delivery in BT474 tumors; type: in vivo, mice; conditions: for apoptotic index (AI): device-delivery, 24 hours post implantation; for increase of apoptosis by addition to microwells preloaded with doxorubicin: 24 hours, vs doxorubicin alone
Experimental: as §6, §7
(§8) Murine A375, BT474, or PC3 tumor models were used to determine whether the device measurement of local microdose response is a satisfactory predictor of a systemic response in different tumor models. Doxorubicin was placed within the microwells of implantable devices. The devices were implanted into A375, BT474, or PC3 tumors on mice. Apoptosis, as measured by cleaved caspase 3 expression, was used to evaluate drug efficacy at 24 hours post implantation or systemic dosing.
as §5, with “Sunitinib or lapatinib” for “Lapatinib”, “BT474” for “MDA-MB231”

PC3 tumors [4] = test: Implantable device assay: apoptosis (cleaved caspase 3) after device delivery in PC3 tumors; type: in vivo, mice; conditions: for apoptotic index (AI): device-delivery, 24 hours post implantation
Experimental: as §6, §7, §8
The implantable device assay was tested in murine tumor models (A375 and PC3) for its ability to predict the response of tumors to several other cytotoxic and targeted anti-cancer agents. Vemurafenib is an enzyme inhibitor that specifically targets the BRAF V600E mutation. A375 tumors have this mutation. […] Response to vemurafenib was measured by intratumor apoptotic response using the implantable device assay.
as §5, with “Sunitinib” for “Lapatinib”, “PC3” for “MDA-MB231”

PC3 tumors [5] = test: Local tumor apoptosis (cleaved caspase 3) after systemic dosing in PC3 tumors; type: in vivo, mice; conditions: systemic dosing 8 mg/kg, 24 hours
Experimental: as §1

survivin = test: Survivin protein expression by immunohistochemistry around device in BT474 tumor; type: in vivo; conditions: 20 hour exposure, region closest to the microwell
Experimental: as §3, §4

[6] = Doxorubicin concentration in tumor tissue surrounding the implanted device (fluorescent imaging); type: in vivo, mice; conditions: mouse, pure doxorubicin in microwell, 20 hours post implantation
Text: as §7
Varying percentages (1% and 5% by weight) of doxorubicin was dissolved in PEG having a molecular weight of 1000 or 1450. Pure powder doxorubicin and the PEG-doxorubicin formulations were loaded into microwells in the device. The device was implanted into tumors. After 20 hours, the device and surrounding tissue was removed and analyzed for doxorubicin concentration and cleaved caspase 3 expression, as previously described.
Microwells were loaded with pure doxorubicin and the device was implanted into tumor tissue. The device and surrounding tissue was removed at varying times post-implantation. The concentration of doxorubicin in the surrounding tissue was evaluated using immunohistochemical techniques and fluorescent imaging.
as §2

[7] = device-delivery, single agent, MDA-MB231 tumors

- intratumor doxorubicin concentration, areas of high concentration [2]: 8 to 13 mg/kg
- intratumor doxorubicin concentration, areas of low concentration [2]: 3 to 7 mg/kg
- concentration at 20 h ([6]; 0-130 μm from the microwell): 15000 to 20000 ng/g
- concentration at 20 h ([6]; approximately 130-200 μm from the microwell): 8000 to 13000 ng/g
- concentration at 20 h ([6]; approximately 200-300 μm from the microwell): 3000 to 7000 ng/g
Compound: COc1cccc2c1C(=O)c1c(O)c3c(c(O)c1C2=O)C[C@@](O)(C(=O)CO)C[C@@H]3O[C@H]1C[C@H](N)[C@H](O)[C@H](C)O1 [doxorubicin]
- local tumor apoptosis, apoptotic index (AI) (A375 tumors [1]): 34.9%
- Ki67 expression (Ki67): undetectable levels
- apoptotic index (AI) (MDA-MB231 tumors; [7]): 7.4%
- number of cleaved caspase 3 positive cells as percent area of DAB staining (A375 tumors [3]; 20 hours, A375 compared with BT474 and PC3, approximately 100-250 μm from the microwell): greatest number of cells to undergo apoptosis
- apoptotic index (AI) (A375 tumors [3]; device-delivery, A375 tumors, 24 hours post implantation): 55%
- apoptotic index (AI) (BT474 tumors): 18%
- apoptotic index (AI) (PC3 tumors [4]): 6%
- local tumor apoptosis, apoptotic index (AI) (PC3 tumors [5]): 8.7%
- Survivin expression (survivin): undetectable

Compound: CCN(CC)CCNC(=O)c1c(C)[nH]c(/C=C2\C(=O)Nc3ccc(F)cc32)c1C [sunitinib]
- increase of apoptosis by addition to microwells preloaded with doxorubicin (BT474 tumors): 66%
- increase of apoptosis by addition to microwells preloaded with doxorubicin (PC3 tumors [4]; 24 hours, vs doxorubicin alone): 330%

Compound: CC[C@@]1(O)C(=O)OCc2c1cc1n(c2=O)Cc2cc3c(CN(C)C)c(O)ccc3nc2-1 [topotecan]
- apoptotic index (AI) (BT474 tumors): 2.2%
- apoptotic index (AI) (PC3 tumors [4]): 6.3%

Compound: CCCS(=O)(=O)Nc1ccc(F)c(C(=O)c2c[nH]c3ncc(-c4ccc(Cl)cc4)cc23)c1F [vemurafenib]
- intratumor apoptotic response greater in A375 model as compared to PC3 model (A375 tumors [3]; device-delivery, A375 (BRAF V600E) vs PC3): 250%

Compound: Nc1ccn([C@@H]2O[C@H](CO)[C@@H](O)C2(F)F)c(=O)n1 [gemcitabine]
- apoptotic index (AI) (MDA-MB231 tumors; [7]): 21.8%
- apoptotic index (AI) (BT474 tumors): 2.0% and 2.6%
- apoptotic index (AI) (PC3 tumors [4]): 12.5%

Compound: CS(=O)(=O)CCNCc1ccc(-c2ccc3ncnc(Nc4ccc(OCc5cccc(F)c5)c(Cl)c4)c3c2)o1 [lapatinib]
- elevation of apoptotic response by addition to doxorubicin in the microwells (MDA-MB231 tumors; MDA-MB-231 tumors, 24 hours, vs doxorubicin alone): 140%
- apoptotic index (AI) (MDA-MB231 tumors; lapatinib added to doxorubicin in the microwells, MDA-MB-231 tumors, 24 hours): 17.5%
- increase of apoptosis by addition to microwells preloaded with doxorubicin (BT474 tumors): 355%
